The source of these data is patent US10344019B2 (priority 2010, dated 2019).

Holding throughout (assay type): cell-based
For experiment [1], the system named is HCV 2a Rluc cells (NS5A chimeric genotype 2a JFH-1 replicon with genotype 2a J6 strain NS5A gene, M31 present). As to the kind of experiment: HCV replicon reporter assay, genotype 2a J6 (M31 present). As to conditions: Hepatitis C virus, read-out: 2a J6. The procedure, abridged: (§1)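 Renilla luciferase HCV replicon cells: dicistronic 1b Con1, 1a H77 or 2a JFH-1 replicons, or a JFH-1 chimera carrying J6 NS5A (M31 present). Compound in DMSO serial dilutions, 72 h incubation, then lysis and luciferase read. EC50 by non-linear regression.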
Background: Replicon systems follow genome replication, usually without infectious particles.

For experiment [2], the system named is Q30R in genotype 1a NS5A, 1a Rluc replicon transfected into Huh-7 cured-51 cells. Put plainly: HCV replicon assay, resistance mutant 1a Q30R. The settings on record: Hepatitis C virus, Huh-7, read-out: 1a Q30R. The essentials: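 Q30R introduced into genotype 1a H77 RLuc replicon by site-directed mutagenesis; replicon RNA transfected into Huh-7 cured-51 cells.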

In experiment [3] the test system is HCV 3a RLuc cells (NS5A chimeric genotype 1b Con1 replicon with consensus genotype 3a NS5A gene). Put plainly: microbe, parasite or virus in culture. As to conditions: Hepatitis C virus. The procedure, abridged:
(§2)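 Replicon cells stably carrying the listed RLuc-encoding dicistronic replicons were seeded and treated with DMSO serial dilutions of compound (10 mM stocks) diluted into culture medium. After 72 h, cells were lysed and Renilla luciferase activity measured. EC50 was derived by non-linear regression.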

Experiment [4] has as its system HCV 2a JFH-1 Rluc cells (dicistronic genotype 2a JFH-1 replicon, RLuc reporter). As to the kind of experiment: microbe, parasite or virus in culture. The settings on record: Hepatitis C virus, read-out: 2a JFH. The procedure, abridged:
as §1

Experiment [5] has as its system HCV 1a RLuc cells (dicistronic genotype 1a H77 replicon, RLuc reporter). As to the kind of experiment: microbe, parasite or virus in culture. As to conditions: Hepatitis C virus, read-out: 1a. The essentials: as §1
Experiment [6] deals with HCV 2b Rluc cells (NS5A chimeric genotype 2a JFH-1 replicon with genotype 2b MD2b-1 NS5A gene, M31 present). As to the kind of experiment: microbe, parasite or virus in culture. As to conditions: Hepatitis C virus, read-out: 2b. The procedure, abridged:
as §2

For experiment [7], the system named is HCV 1b RLuc cells (dicistronic genotype 1b Con1 replicon, RLuc reporter). As to the kind of experiment: microbe, parasite or virus in culture. As to conditions: Hepatitis C virus, read-out: 1b (nM). The procedure, abridged: as §1
For experiment [8], the system named is HCV 4a Rluc cells (NS5A chimeric genotype 1b Con1 replicon with genotype 4a NS5A gene). Put plainly: microbe, parasite or virus in culture. The settings on record: Hepatitis C virus, read-out: 4a. The procedure, abridged:
as §2

The mark [9] stands for this setting: read-out: 3a, genotype 3a replicon.
The mark [10] stands for this setting: read-out: 3a, genotype 3a NS5A chimeric replicon.
Setting [11] is: genotype 2a JFH-1 RLuc replicon.

Where two headings read alike, the source gives them in different places.

Consider `COC[C@H]1C[C@@H](c2nc3ccc4cc(-c5ccc6c(ccc7nc([C@@H]8CCCN8C(=O)[C@@H](NC(=O)OC)C(C)C)[nH]c76)c5)ccc4c3[nH]2)N(C(=O)[C@H](NC(=O)OC)c2ccccc2)C1` [Example 453], for which the EC50 in experiment [1] lay in the range of 0.001 to 0.999 nM; in experiment [2] it was 0.001 to 0.999 nM; in experiment [3] (setting [9]), 0.001 to 0.99 nM; in experiment [4] (genotype 2a JFH-1 replicon), 0.001 to 0.999 nM; in experiment [5] (genotype 1a replicon) it was 0.001 to 0.999 nM; in experiment [6], 0.001 to 0.999 nM. Further, the EC50 was 0.018 nM in experiment [7] and 0.001 to 0.99 nM in experiment [8].

For `COC(=O)N[C@H](C(=O)N1CCC[C@H]1c1nc2ccc3cc(-c4ccc5c(ccc6nc([C@@H]7[C@H]8CC[C@H](C8)N7C(=O)[C@H](NC(=O)OC)c7ccccc7)[nH]c65)c4)ccc3c2[nH]1)C(C)C` [Example 325], the EC50 in experiment [1] is 0.001 to 0.999 nM; in experiment [2] it was 1 to 44 nM; in experiment [3] (setting [9]), 0.001 to 0.99 nM; in experiment [4] (genotype 2a JFH-1 replicon), 0.001 to 0.999 nM; in experiment [5] (genotype 1a replicon), 0.001 to 0.999 nM; in experiment [6], 1 to 44 nM. The EC50 in experiment [7] is 0.018 nM; in experiment [8] it was 0.001 to 0.99 nM.

Regarding `COC[C@H]1C[C@@H](c2nc3ccc4cc5c(cc4c3[nH]2)OCc2cc(-c3cnc([C@@H]4CCCN4C(=O)[C@@H](NC(=O)OC)C(C)C)[nH]3)ccc2-5)N(C(=O)[C@H](N)c2ccccc2)C1` [Example 571], the EC50 lay within 0.001 to 0.999 nM in experiment [1]; 0.001 to 0.999 nM in experiment [2]; 0.001 to 0.99 nM in experiment [3] (setting [10]); 0.001 to 0.999 nM in experiment [4] (setting [11]); 0.001 to 0.999 nM in experiment [5] (genotype 1a H77 RLuc replicon); 0.001 to 0.999 nM in experiment [6]. Moreover, the EC50 was 0.114 nM in experiment [7] and 0.001 to 0.99 nM in experiment [8].

In the case of `COC(=O)N[C@H](C(=O)N1CCC[C@H]1c1ncc(-c2ccc3c(c2)COc2cc4c(ccc5nc([C@@H]6CCCN6C(=O)[C@H](NC(=O)OC)c6ccccc6)[nH]c54)cc2-3)[nH]1)C(C)C` [Example 423], the EC50 was in the range of 0.001 to 0.999 nM in experiment [1]; 0.001 to 0.999 nM in experiment [2]; 0.001 to 0.99 nM in experiment [3] (setting [9]); 0.001 to 0.999 nM in experiment [4] (genotype 2a JFH-1 replicon); 0.001 to 0.999 nM in experiment [5] (genotype 1a replicon); 0.001 to 0.999 nM in experiment [6]. The values for the EC50 in experiment [7] and in experiment [8] were 0.02 nM and 0.001 to 0.99 nM, respectively.

Turning to `COC[C@H]1C[C@@H](c2ncc(-c3ccc(-c4ccc(-c5cnc([C@@H]6CCCN6C(=O)[C@@H](NC(=O)OC)C(C)C)[nH]5)cc4)cc3)[nH]2)N(C(=O)[C@H](NC(=O)OC)c2ccccc2)C1` [Example 500], the EC50 in experiment [1] was in the range of 1 to 44 nM; in experiment [2] it was 0.001 to 0.999 nM; in experiment [3] (setting [10]), 0.001 to 0.99 nM; in experiment [4] (setting [11]), 0.001 to 0.999 nM; in experiment [5] (genotype 1a H77 RLuc replicon), 0.001 to 0.999 nM; in experiment [6], 0.001 to 0.999 nM. Further, the results for the EC50 in experiment [7] and in experiment [8] were 0.028 nM and 0.001 to 0.99 nM, respectively.

Take `COC(=O)N[C@H](C(=O)N1CCC[C@H]1c1nc2ccc3cc4c(cc3c2[nH]1)OCc1cc(-c2cnc([C@@H]3CCCN3C(=O)[C@H](NC(=O)OC)c3ccccc3)[nH]2)ccc1-4)C(C)C` [Example 426]: the EC50 in experiment [1] was in the range of 0.001 to 0.999 nM; in experiment [2] it was 0.001 to 0.999 nM; in experiment [3] (setting [9]), 0.001 to 0.99 nM; in experiment [4] (genotype 2a JFH-1 replicon), 0.001 to 0.999 nM; in experiment [5] (genotype 1a replicon) it was 0.001 to 0.999 nM; in experiment [6], 0.001 to 0.999 nM. Moreover, the EC50 was 0.033 nM in experiment [7] and 0.001 to 0.99 nM in experiment [8].

For `COC(=O)N[C@H](C(=O)N1[C@H](c2nc3ccc4cc5c(cc4c3[nH]2)OCc2cc(-c3cnc(C4CCCN4C(=O)[C@@H](NC(=O)OC)C4CCOCC4)[nH]3)ccc2-5)C[C@@H]2CCC[C@@H]21)C(C)C` (some centres unmarked) [Example 575], the EC50 lay within 0.001 to 0.999 nM in experiment [1]; 0.001 to 0.999 nM in experiment [2]; 0.001 to 0.99 nM in experiment [3] (setting [10]); 0.001 to 0.999 nM in experiment [4] (setting [11]); 0.001 to 0.999 nM in experiment [5] (genotype 1a H77 RLuc replicon); 0.001 to 0.999 nM in experiment [6]. Further, the EC50 in experiment [7] is 0.029 nM; in experiment [8] it was 0.001 to 0.99 nM.

On to `COC(=O)N[C@H](C(=O)N1[C@@H]2C[C@@H]2C[C@H]1c1nc2ccc3cc4c(cc3c2[nH]1)OCc1cc(-c2cnc([C@@H]3CCCN3C(=O)[C@H](NC(=O)OC)c3ccccc3)[nH]2)ccc1-4)C(C)C` [Example 536], for which the EC50 in experiment [1] was 0.001 to 0.999 nM; in experiment [2], 0.001 to 0.999 nM; in experiment [3] (setting [10]) it was 0.001 to 0.99 nM; in experiment [4] (setting [11]), 0.001 to 0.999 nM; in experiment [5] (genotype 1a H77 RLuc replicon), 0.001 to 0.999 nM; in experiment [6] it was 0.001 to 0.999 nM. Moreover, the EC50 is 0.013 nM in experiment [7] and 0.001 to 0.99 nM in experiment [8].

`COC[C@H]1C[C@@H](c2ncc(-c3ccc4c(c3)COc3cc5c(ccc6nc([C@@H]7C[C@H](COC)CN7C(=O)[C@@H](NC(=O)OC)C(C)C)[nH]c65)cc3-4)[nH]2)N(C(=O)[C@@H](NC(=O)OC)C(C)C)C1` [Example 579]: the EC50 in experiment [1] is 0.001 to 0.999 nM; in experiment [2], 0.001 to 0.999 nM; in experiment [3] (setting [10]) it was 0.001 to 0.99 nM; in experiment [4] (setting [11]), 0.001 to 0.999 nM; in experiment [5] (genotype 1a H77 RLuc replicon) it was 0.001 to 0.999 nM; in experiment [6], 0.001 to 0.999 nM. The EC50 was 0.034 nM in experiment [7] and 0.001 to 0.99 nM in experiment [8].

For the molecule `CCO[C@H]1C[C@@H](c2nc3ccc4cc5c(cc4c3[nH]2)OCc2cc(-c3cnc([C@@H]4CCCN4C(=O)[C@@H](NC(=O)OC)C(C)C)[nH]3)ccc2-5)N(C(=O)[C@@H](NC(=O)OC)C(C)C)C1` [Example 551], the EC50 in experiment [1] lay within 0.001 to 0.999 nM; in experiment [2], 0.001 to 0.999 nM; in experiment [3] (setting [10]), 0.001 to 0.99 nM; in experiment [4] (setting [11]) it was 0.001 to 0.999 nM; in experiment [5] (genotype 1a H77 RLuc replicon), 0.001 to 0.999 nM; in experiment [6], 0.001 to 0.999 nM. Moreover, the EC50 in experiment [7] was 0.018 nM; in experiment [8] it was 0.001 to 0.99 nM.

In the case of `COC[C@H]1C[C@@H](c2nc3ccc4cc(-c5ccc6c(ccc7nc([C@@H]8C[C@H](C)CN8C(=O)[C@@H](NC(=O)OC)C(C)C)[nH]c76)c5)ccc4c3[nH]2)N(C(=O)[C@@H](NC(=O)OC)C2CCOCC2)C1` [Example 560], the EC50 lay within 0.001 to 0.999 nM in experiment [1]; 0.001 to 0.999 nM in experiment [2]; 0.001 to 0.99 nM in experiment [3] (setting [10]); 0.001 to 0.999 nM in experiment [4] (setting [11]); 0.001 to 0.999 nM in experiment [5] (genotype 1a H77 RLuc replicon); 0.001 to 0.999 nM in experiment [6]. Also, the values for the EC50 in experiment [7] and in experiment [8] were 0.092 nM and 0.001 to 0.99 nM, respectively.

For the molecule `COC[C@H]1C[C@@H](c2nc3ccc4cc(-c5ccc6c(ccc7nc([C@@H]8C[C@H]9C[C@H]9N8C(=O)[C@@H](NC(=O)OC)C(C)C)[nH]c76)c5)ccc4c3[nH]2)N(C(=O)[C@H](NC(=O)OC)c2ccccc2)C1` [Example 472], the EC50 in experiment [1] lay in the range of 0.001 to 0.999 nM; in experiment [2], 0.001 to 0.999 nM; in experiment [3] (setting [9]), 0.001 to 0.99 nM; in experiment [4] (genotype 2a JFH-1 replicon), 0.001 to 0.999 nM; in experiment [5] (genotype 1a replicon), 0.001 to 0.999 nM; in experiment [6], 0.001 to 0.999 nM. Moreover, the EC50 in experiment [7] is 0.01 nM; in experiment [8], 0.001 to 0.99 nM.

`COC(=O)N[C@H](C(=O)N1CCC[C@H]1c1nc2ccc3cc4c(cc3c2[nH]1)OCc1cc(-c2cnc([C@@H]3CCCN3C(=O)[C@H](NC(=O)C3CC3)c3ccccc3)[nH]2)ccc1-4)C(C)C` [Example 498]: the EC50 in experiment [1] was 0.001 to 0.999 nM; in experiment [2] it was 0.001 to 0.999 nM; in experiment [3] (setting [10]), 0.001 to 0.99 nM; in experiment [4] (setting [11]), 0.001 to 0.999 nM; in experiment [5] (genotype 1a H77 RLuc replicon) it was 0.001 to 0.999 nM; in experiment [6], 0.001 to 0.999 nM. Moreover, the EC50 in experiment [7] is 0.016 nM; in experiment [8] it was 0.001 to 0.99 nM.
